Assay [1] deals with thermostable luciferase (Luc146-1H2) (Photuris pensylvanica, UniProt Q27757). In kind it is biochemical, Photuris pennsylvanica.
The target of assay [2] is wild type luciferase from Photinus pyralis (QuantiLum recombinant luciferase) (Photinus pyralis, UniProt P08659). In kind it is biochemical.
[3] abbreviates: No PPi, 1 mM AMP, 2 mM 5′AMPS, 2 mM ADP S, 5 mM dATP, ATP 0 to 1.67 mM.
[4] abbreviates: with 50 μM PPi, 1 mM AMP, 2 mM 5′AMPS, 2 mM ADP S, 5 mM dATP, ATP 0 to 1.67 mM.
Setting [5] is: NT (no inhibitor), metal salt replacing MgSO4, MgSO4 reactions employed NaATP, read-out: ATP Km.
[6] abbreviates: with AMP + PPi, metal salt replacing MgSO4, MgSO4 reactions employed NaATP, read-out: ATP Km.
Where [7] appears, read: with AMP, metal salt replacing MgSO4, MgSO4 reactions employed NaATP, read-out: ATP Km.
The mark [8] stands for this setting: with PPi, metal salt replacing MgSO4, MgSO4 reactions employed NaATP, read-out: ATP Km.

Here are results for 12 compounds from patent publication US20060234323A1, “Luminescent ATP detection with extended linearity” (priority 2005, published 2006).

Like-named read-outs stand apart in the source and are kept apart here. Where only a bound is given, the exact number is not on record here.

Sequence of wild type luciferase from Photinus pyralis (QuantiLum recombinant luciferase) (P08659 whole entry): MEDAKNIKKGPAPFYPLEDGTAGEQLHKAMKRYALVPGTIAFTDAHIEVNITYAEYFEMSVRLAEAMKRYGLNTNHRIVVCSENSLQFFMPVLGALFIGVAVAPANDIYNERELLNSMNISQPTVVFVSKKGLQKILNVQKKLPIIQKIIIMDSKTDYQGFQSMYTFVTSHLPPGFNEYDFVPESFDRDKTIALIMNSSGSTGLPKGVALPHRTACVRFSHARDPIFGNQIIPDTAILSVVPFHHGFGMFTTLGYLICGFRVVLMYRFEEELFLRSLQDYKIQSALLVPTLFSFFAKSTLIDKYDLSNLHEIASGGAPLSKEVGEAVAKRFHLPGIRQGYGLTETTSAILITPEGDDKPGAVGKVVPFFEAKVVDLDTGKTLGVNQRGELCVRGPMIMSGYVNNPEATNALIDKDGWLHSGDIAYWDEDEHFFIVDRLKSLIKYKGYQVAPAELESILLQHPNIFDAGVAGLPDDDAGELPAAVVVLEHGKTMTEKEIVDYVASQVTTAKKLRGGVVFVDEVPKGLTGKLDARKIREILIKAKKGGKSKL
Sequence of thermostable luciferase (Luc146-1H2) (Q27757 whole entry): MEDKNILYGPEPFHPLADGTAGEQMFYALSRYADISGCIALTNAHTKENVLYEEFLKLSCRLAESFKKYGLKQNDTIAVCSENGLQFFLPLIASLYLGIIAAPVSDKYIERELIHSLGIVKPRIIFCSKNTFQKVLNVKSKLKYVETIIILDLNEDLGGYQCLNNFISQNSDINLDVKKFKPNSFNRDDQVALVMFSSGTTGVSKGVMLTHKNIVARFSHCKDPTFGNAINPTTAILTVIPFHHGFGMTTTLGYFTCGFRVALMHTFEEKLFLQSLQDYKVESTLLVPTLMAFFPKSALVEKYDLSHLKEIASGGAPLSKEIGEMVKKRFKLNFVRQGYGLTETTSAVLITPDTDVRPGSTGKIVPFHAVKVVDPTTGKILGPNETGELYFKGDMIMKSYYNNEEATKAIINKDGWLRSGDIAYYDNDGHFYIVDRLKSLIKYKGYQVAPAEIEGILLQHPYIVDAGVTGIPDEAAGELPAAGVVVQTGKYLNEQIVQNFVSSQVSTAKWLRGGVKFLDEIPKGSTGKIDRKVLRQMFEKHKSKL

By Km is commonly meant the concentration of substrate that gives half-maximal velocity. With `Nc1ncnc2c1ncn2[C@@H]1O[C@H](COP(O)(O)=S)[C@@H](O)[C@H]1O` [5′AMPS, adenosine 5′-O-thiomonophosphate], in assay [1], the “increase of the luciferase Km for ATP” value was roughly 10 fold. Further, the “type of inhibition of luciferase with respect to ATP” value (from here on “type of inhibition of luciferase”) in assay [1] was “competitive inhibitors”. For the same compound, the Km was found to be 91 µM in assay [1] (setting [3]) and 1070 µM in assay [1] (setting [4]).

With `Nc1ncnc2c1ncn2[C@@H]1O[C@H](COP(=O)(O)OP(O)(O)=S)[C@@H](O)[C@H]1O` [ADP S, adenosine 5′-[β-thio] diphosphate], in assay [1], the “increase of the luciferase Km for ATP” value is reported as roughly 10 fold and the “type of inhibition of luciferase” value is “competitive inhibitors”. Further, the Km in assay [1] (setting [3]) stood at 93 µM. Also, the Km in assay [1] (setting [4]) stood at 581 µM.

On to `Nc1ncnc2c1ncn2[C@@H]1O[C@H](COP(=O)(O)O)[C@@H](O)[C@H]1O` [AMP, adenosine monophosphate], for which the “increase of the luciferase Km for ATP” value in assay [1] is listed as roughly 10 fold. Also, the “type of inhibition of luciferase” value in assay [1] is recorded as “competitive inhibitors”. The Km in assay [1] (setting [3]) is 109 µM; in assay [1] (read-out: ATP Km, 1 mM AMP, ATP range 0-1.67 mM), 109 µM; in assay [1] (read-out: Km for ATP, ATP range 0 to 0.09 mM, AMP = 1 mM, PPi = 50 μM, hyperbolic curve fit) it was 232 µM; in assay [1] (read-out: Km for ATP, ATP range 0 to 0.3 mM, AMP = 1 mM, PPi = 50 μM, hyperbolic curve fit) it was 243 µM; in assay [1] (read-out: Km for ATP, ATP range 0 to 0.8 mM, AMP = 1 mM, PPi = 50 μM, hyperbolic curve fit), 203 µM; in assay [1] (read-out: Km for ATP, ATP range 0 to 2.5 mM, AMP = 1 mM, PPi = 50 μM, hyperbolic curve fit), 115 µM. The Km in assay [1] (setting [4]) worked out at 1700 µM. For the same compound, in assay [2] (3 mM AMP alone, compared to reactions with no PPi or AMP), the “decrease in Km” value was found to be 65%.

On to `[Ca+2].[Cl-].[Cl-]` [CaCl2], for which the Km in assay [2] (setting [5]) turned out to be 1910 µM; in assay [2] (setting [6]), 1040 µM; in assay [2] (setting [7]), 980 µM; in assay [2] (setting [8]), 1450 µM.

As to `[Cl-].[Cl-].[Mg+2]` [MgCl2], the Km was 115 µM in assay [2] (setting [5]), 213 µM in assay [2] (setting [6]), 56 µM in assay [2] (setting [7]) and 276 µM in assay [2] (setting [8]).

For the compound `O=S(=O)([O-])[O-].[Mg+2]` [MgSO4], the Km amounted to 39 µM in assay [2] (setting [5]), 93 µM in assay [2] (setting [6]), 15 µM in assay [2] (setting [7]) and 128 µM in assay [2] (setting [8]).

Take `[Cl][Mn][Cl]` [MnCl2]: the Km is 120 µM in assay [2] (setting [5]), 111 µM in assay [2] (setting [6]), 44 µM in assay [2] (setting [7]) and 170 µM in assay [2] (setting [8]).

For the compound `[Cl][Ni][Cl]` [NiCl2], the “increase of the Km for ATP” value in assay [1] (non-Mg metal employed with PPi) was “about 10 fold”. For the same compound, the Km in assay [2] (setting [5]) worked out at 906 µM; in assay [2] (setting [6]), 1540 µM; in assay [2] (setting [7]), 1100 µM; in assay [2] (setting [8]) it was 2420 µM.

For the compound `O=P(O)(O)OP(=O)(O)O` [PPi], the “increase of the luciferase Km for ATP” value in assay [1] is reported as no more than 2 fold. Besides, the “type of inhibition of luciferase” value in assay [1] is “noncompetitive”; in assay [2] (native beetle luciferase, in the presence of certain divalent metals), “competitive”. The Km in assay [1] (50 μM PPi alone (NT row, no adenosine derivative), ATP 0 to 1.67 mM, read-out: Km) worked out at 4 µM; in assay [1] (ATP range 0 to 0.09 mM, AMP = 1 mM, PPi = 50 μM, hyperbolic curve fit, read-out: Km for ATP), 6 µM; in assay [1] (ATP range 0 to 0.3 mM, AMP = 1 mM, PPi = 50 μM, hyperbolic curve fit, read-out: Km for ATP), 6 µM; in assay [1] (ATP range 0 to 0.8 mM, AMP = 1 mM, PPi = 50 μM, hyperbolic curve fit, read-out: Km for ATP) it was 6 µM; in assay [1] (ATP range 0 to 2.5 mM, AMP = 1 mM, PPi = 50 μM, hyperbolic curve fit, read-out: Km for ATP), 5 µM; in assay [2] (0 mM AMP, 50 μM PPi, ATP 0 to 2.5 mM, MgATP, read-out: Km) it was 121 µM. The Km in assay [2] (0 mM AMP, 100 μM PPi, ATP 0 to 2.5 mM, MgATP, read-out: Km) came to 130 µM; in assay [2] (0 mM AMP, 200 μM PPi, ATP 0 to 2.5 mM, MgATP, read-out: Km), 146 µM. Also, the “increase in Km” value in assay [2] (200 μM PPi alone, compared to reactions with no PPi or AMP) amounted to 28%.

As for `[Cl-].[Cl-].[Sr+2]` [SrCl2], the Km in assay [2] (setting [5]) was 373 µM; in assay [2] (setting [6]), 2650 µM; in assay [2] (setting [7]), 110 µM; in assay [2] (setting [8]), 3290 µM.

On to `[Cl-].[Cl-].[Zn+2]` [ZnCl2], for which the Michaelis-Menten constant (Km) in assay [2] (setting [5]) turned out to be 63 µM; in assay [2] (setting [6]), 2390 µM; in assay [2] (setting [7]), 585 µM; in assay [2] (setting [8]), 109 µM.

In the case of `Nc1ncnc2c1ncn2[C@H]1C[C@H](O)[C@@H](COP(=O)(O)OP(=O)(O)OP(=O)(O)O)O1` [dATP, deoxyadenosine triphosphate], in assay [1], the “increase of the luciferase Km for ATP” value is roughly 10 fold and the “type of inhibition of luciferase” value is on record as “competitive inhibitors”. In addition, the Km in assay [1] (setting [3]) worked out at 127 µM. Besides, in assay [1] (setting [4]), the Km came out at 232 µM.
